Experiments:
QsAMT3.2-like (QsAMT3.2) = target: T1, QsAMT3.2-like (QsAMT3.2) (Quercus suber, UniProt Z9KUH6IWZ3); experiment: […]-methylammonium uptake in transformed yeast, Michaelis-Menten and Lineweaver-Burk; type: cell-based; details: labelled compound; yeast 31019b; substrate of the Km taken from the methods; read-out: apparent Km
T1 construct: full-length cDNA from ectomycorrhizal cork oak roots in pDR196, expressed in yeast strain 31019b (mep1 mep2 mep3 deleted)
T1 sequence (Z9KUH6IWZ3 1-486): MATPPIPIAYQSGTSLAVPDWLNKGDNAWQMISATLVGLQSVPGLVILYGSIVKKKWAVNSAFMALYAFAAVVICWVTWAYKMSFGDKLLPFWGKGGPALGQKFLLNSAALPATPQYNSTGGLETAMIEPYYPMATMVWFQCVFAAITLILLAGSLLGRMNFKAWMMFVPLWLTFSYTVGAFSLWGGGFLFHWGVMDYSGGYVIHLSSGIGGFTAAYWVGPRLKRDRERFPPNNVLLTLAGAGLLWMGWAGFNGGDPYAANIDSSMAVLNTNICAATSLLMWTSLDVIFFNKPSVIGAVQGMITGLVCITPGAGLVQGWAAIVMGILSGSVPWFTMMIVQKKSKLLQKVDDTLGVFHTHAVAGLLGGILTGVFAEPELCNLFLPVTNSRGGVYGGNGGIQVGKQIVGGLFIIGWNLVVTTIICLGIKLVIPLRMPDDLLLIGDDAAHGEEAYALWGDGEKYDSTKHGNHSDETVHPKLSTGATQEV

QsAMT1.2-like (QsAMT1.2) = target: T2, QsAMT1.2-like (QsAMT1.2) (Quercus suber, UniProt Z9N9G6J3T1); experiment: as above; type: cell-based; details: labelled compound; yeast 31019b; substrate of the Km taken from the methods; read-out: apparent Km
T2 construct: full-length cDNA from ectomycorrhizal cork oak roots in pDR196, expressed in yeast strain 31019b (mep1 mep2 mep3 deleted)
T2 sequence (Z9N9G6J3T1 1-510): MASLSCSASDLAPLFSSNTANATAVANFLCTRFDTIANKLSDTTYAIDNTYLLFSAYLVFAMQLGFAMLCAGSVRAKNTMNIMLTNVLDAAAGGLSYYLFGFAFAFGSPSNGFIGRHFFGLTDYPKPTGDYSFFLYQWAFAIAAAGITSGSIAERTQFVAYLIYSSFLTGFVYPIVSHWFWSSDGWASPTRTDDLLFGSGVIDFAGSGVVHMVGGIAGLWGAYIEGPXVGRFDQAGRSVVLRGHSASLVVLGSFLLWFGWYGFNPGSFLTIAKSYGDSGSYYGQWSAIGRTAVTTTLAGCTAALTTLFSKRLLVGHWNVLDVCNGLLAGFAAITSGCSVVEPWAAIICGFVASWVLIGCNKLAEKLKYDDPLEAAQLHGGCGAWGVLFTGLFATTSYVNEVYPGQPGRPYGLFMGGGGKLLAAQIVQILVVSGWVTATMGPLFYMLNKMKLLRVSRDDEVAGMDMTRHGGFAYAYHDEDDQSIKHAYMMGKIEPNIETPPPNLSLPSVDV

CN [[14C]-methylammonium]
Km (QsAMT3.2-like (QsAMT3.2)): 0.6 µM | Km (QsAMT1.2-like (QsAMT1.2)): 667 µM

— PMC9823632, “Nitrogen Acquisition and Transport in the Ectomycorrhizal Symbiosis—Insights from the Interaction between an Oak Tree and Pisolithus tinctorius” (Plants, 2022)
